Experimental data published in patent US9000018B2, “Thiazolidin-4-one-derivatives” (Actelion Pharmaceuticals Ltd., priority 2003, dated 2015).
Marks after values point to notes of the source that are not given here.

These compounds were tested on circulating lymphocytes in whole blood (assay: number of circulating lymphocytes in whole blood of rats). Details: 6 h after oral administration of 10 mg/kg to normotensive male Wistar rats, compared to group treated with vehicle only.
Type: in vivo, normotensive male Wistar rats
Description: Normotensive male Wistar rats are housed in climate-controlled conditions with a 12-hour light/dark cycle, and have free access to normal rat chow and drinking water. Blood (0.5 mL) is collected by retro-orbital sampling before drug administration, and 3 and 6 h thereafter. Blood cell count is measured in whole blood using a Beckman-Coulter Synchron CX5 Pro cytometer. Statistical analysis of lymphocyte counts are performed by analysis of variance (ANOVA) using Statistica (StatSoft) and the Student-Newman-Keuls procedure for multiple comparisons. Thus, compounds of the invention decrease the number of circulating lymphocytes in whole blood when compared to pre-drug values.

| Structure (SMILES) | Lymphocyte counts [%] |
| --- | --- |
| Cc1ccccc1N1C(=O)/C(=C/c2ccc(OCC(O)CO)c(Cl)c2)S/C1=N\C(C)C (racemic) [Example 24, rac-5-[3-chloro-4-(2,3-dihydroxy-propoxy)-benz[Z]ylidene]-2-([Z]-isopropylimino)-3-o-tolyl-thiazolidin-4-one] | −54 |
| Cc1cccc(N2C(=O)/C(=C/c3ccc(OCC(O)CO)c(Cl)c3)S/C2=N\C(C)C)c1C (racemic) [Example 46, rac-5-[3-chloro-4-(2,3-dihydroxy-propoxy)-benz[Z]ylidene]-3-(2,3-dimethyl-phenyl)-2-([Z]-isopropylimino)-thiazolidin-4-one] | −37 |
| CCC/N=C1\S/C(=C\c2ccc(OCC(O)CO)c(Cl)c2)C(=O)N1c1ccccc1 (racemic) [Example 77, rac-5-[3-chloro-4-(2,3-dihydroxy-propoxy)-benz[Z]ylidene]-3-phenyl-2-([Z]-propylimino)-thiazolidin-4-one] | −55 |
| CCC/N=C1\S/C(=C\c2ccc(OCC(O)CO)c(Cl)c2)C(=O)N1c1ccccc1C (racemic) [Example 84, rac-5-[3-chloro-4-(2,3-dihydroxy-propoxy)-benz[Z]ylidene]-2-([Z]-propylimino)-3-o-tolyl-thiazolidin-4-one] | −68 |
| CCC/N=C1\S/C(=C\c2ccc(OCC(O)CO)c(Cl)c2)C(=O)N1c1cccc(C)c1C (racemic) [Example 95, rac-5-[3-chloro-4-(2,3-dihydroxy-propoxy)-benz[Z]ylidene]-3-(2,3-dimethyl-phenyl)-2-([Z]-propylimino)-thiazolidin-4-one] | −53 |
| CC(C)/N=C1\S/C(=C\c2ccc(OCCO)cc2)C(=O)N1c1ccccc1 [Example 4, 5-[4-(2-Hydroxy-ethoxy)-benz-(Z)-ylidene]-2-[(Z)-isopropylimino]-3-phenyl-thiazolidin-4-one] | −32 |
| CC(C)/N=C1\S/C(=C\c2ccc(OCCO)c(Cl)c2)C(=O)N1c1ccccc1 [Example 7, 5-[3-Chloro-4-(2-hydroxy-ethoxy)-benz-(Z)-ylidene]-2-[(Z)-isopropylimino]-3-phenyl-thiazolidin-4-one] | −67 |
| Cc1cccc(N2C(=O)/C(=C/c3ccc(OCCO)c(Cl)c3)S/C2=N\C(C)C)c1C [Example 42, 5-[3-chloro-4-(2-hydroxy-ethoxy)-benz[Z]ylidene]-3-(2,3-dimethyl-phenyl)-2-([Z]-isopropylimino)-thiazolidin-4-one] | −23 |
| CCC/N=C1\S/C(=C\c2ccc(OCCO)c(Cl)c2)C(=O)N1c1ccccc1 [Example 75, 5-[3-chloro-4-(2-hydroxy-ethoxy)-benz[Z]ylidene]-3-phenyl-2-([Z]-propylimino)-thiazolidin-4-one] | −47 |
| CCC/N=C1\S/C(=C\c2ccc(OCCO)c(C)c2)C(=O)N1c1ccccc1 [Example 76, 5-[4-(2-hydroxy-ethoxy)-3-methyl-benz[Z]ylidene]-3-phenyl-2-([Z]-propylimino)-thiazolidin-4-one] | −58 |
| CCC/N=C1\S/C(=C\c2ccc(OC[C@H](O)CO)c(Cl)c2)C(=O)N1c1ccccc1C [Example 85, 5-[3-chloro-4-((2R)-2,3-dihydroxy-propoxy)-benz-(Z)-ylidene]-2-[(Z)-propylimino]-3-o-tolyl-thiazolidin-4-one] | −63 |
| CCC/N=C1\S/C(=C\c2ccc(OCCO)c(Cl)c2)C(=O)N1c1cccc(C)c1C [Example 91, 5-[3-chloro-4-(2-hydroxy-ethoxy)-benz[Z]ylidene]-3-(2,3-dimethyl-phenyl)-2-([Z]-propylimino)-thiazolidin-4-one] | −35 |
| CN(C)N=C1SC(=Cc2ccc(OCCO)cc2)C(=O)N1c1ccccc1 [Example 100, 2-(dimethyl-hydrazono)-5-[4-(2-hydroxy-ethoxy)-benz[Z]ylidene]-3-phenyl-thiazolidin-4-one] | −53 |
| CC/N=C1\S/C(=C\c2ccc(OCCO)c(Cl)c2)C(=O)N1c1ccccc1 [Example 103, 5-[3-chloro-4-(2-hydroxy-ethoxy)-benz[Z]ylidene]-2-([Z]-Ethylimino)-3-phenyl-thiazolidin-4-one] | −47 |
| CC/N=C1\S/C(=C\c2ccc(OCCO)c(Cl)c2)C(=O)N1c1cccc(C)c1C [Example 110, 5-[3-chloro-4-(2-hydroxy-ethoxy)-benz[Z]ylidene]-3-(2,3-dimethyl-phenyl)-2-([Z]-ethylimino)-thiazolidin-4-one] | −30 |
| CC(C)/N=C1\S/C(=C\c2ccc(OCCO)c(Cl)c2)C(=O)N1C(C)C [Example 130, 5-[3-chloro-4-(2-hydroxy-ethoxy)-benz[Z]ylidene]-3-isopropyl-2-([Z]-isopropylimino)-thiazolidin-4-one] | −26 |

Same assay, conditions: at 3 mg/kg p.o.; 6 h after oral administration to normotensive male Wistar rats, compared to group treated with vehicle only

| Structure (SMILES) | Lymphocyte counts |
| --- | --- |
| CCC/N=C1\S/C(=C\c2ccc(OC[C@@H](O)CO)c(Cl)c2)C(=O)N1c1ccccc1C [Example 86, (S)-5-[3-chloro-4-(2,3-dihydroxy-propoxy)-benz[Z]ylidene]-2-([Z]-propylimino)-3-o-tolyl-thiazolidin-4-one] | −30* % |
